Measured values reported in patent publication US9573970B2, “4-{4-[(1E)-4-(2,9-diazaspiro[5.5]undec-2-yl)but-1-en-1-yl]-2-methylbenzyl}-5-(propan-2-yl)-1H-pyrazol-3-yl beta-D glucopyranoside acetate” (Eli Lilly and Company, priority 2013, dated 2017).

Test system: normal glycemic C57B1/6 mouse
Assay: Glucose lowering effects in oral glucose tolerance test (OGTT)
Format: in vivo
Settings: for Glucose, 20 Minute: 20 min after dextrose; for Glucose, 20 Minute / Glucose, 40 Minute / Glucose, 60 Minute / Glucose, 120 Minute / Baseline Adjusted AUC (glucose) / Glucose, 0 Minute: mean ± SE; for Glucose, 40 Minute: 40 min after dextrose; for Glucose, 60 Minute: 60 min after dextrose; for Glucose, 120 Minute: 120 min after dextrose; for Baseline Adjusted AUC (glucose): OGTT; for Glucose, 0 Minute: baseline 3 h after compound, before dextrose 3 g/kg
Protocol: The test compound is formulated by adding a vehicle of 1% hydroxyethylcellulose, 0.25% Tween® 80 w/antifoam 0.05% to preweighed test compound to make a 1 mg/ml solution. The mixture is probe sonicated for approximately 30 seconds. The resulting solution is used as a stock solution from which the lower concentration dose solutions are prepared by dilution with the vehicle.
Single housed C57B1/6 mice are fasted overnight by removing access to food the late afternoon before test day. The following morning, the mice are weighed and a single fasting blood sample is taken by tail snip to measure glucose by glucometer (Roche AccuChek). Study groups (n=5) are determined based on fasted blood glucose and comprise preferably animals in the range of 80-100 mg/dl glucose.
After grouping, the first mouse is orally gavaged with 10 ml/kg test compound preparation and a timer started. Each subsequent animal is dosed a minute and a half apart. Three hours after the first compound treatment is started, a baseline blood sample is taken for measuring glucose (from the first animal, via tail snip). The animal is then immediately given an oral dose of 50% dextrose (Hospira) at 3 g/kg. Blood samples are taken for glucose, exactly a minute and half apart, by tail vein so that blood is collected in each animal at 20, 40, 60 and 120 minutes after the dextrose dose.

For `Cc1cc(/C=C/CCN2CCCC3(CCNCC3)C2)ccc1Cc1c(O[C@@H]2O[C@H](CO)[C@@H](O)[C@H](O)[C@H]2O)n[nH]c1C(C)C` [Example 1 (free base), 4-{4-[(1E)-4-(2,9-diazaspiro[5.5]undec-2-yl)but-1-en-1-yl]-2-methylbenzyl}-5-(propan-2-yl)-1H-pyrazol-3-yl beta-D-glucopyranoside], the “Glucose, 20 Minute” value (0.3 mg/kg oral) was 185 ± 13.7 mg/dL, the “Glucose, 40 Minute” value (0.3 mg/kg oral) was 197 ± 14.7 mg/dL and the “Glucose, 60 Minute” value (0.3 mg/kg oral) was 164 ± 6.3 mg/dL. For the same molecule, the “Glucose, 120 Minute” value (0.3 mg/kg oral) was 121 ± 11.8 mg/dL, the “Baseline Adjusted AUC (glucose)” value (0.3 mg/kg oral, in mg·min/dL) was 5400 ± 519^ and the “Glucose, 0 Minute” value (0.3 mg/kg oral) was 78 ± 4.2 mg/dL. The “Glucose, 20 Minute” value (1 mg/kg oral) was 147 ± 8.3 mg/dL, the “Glucose, 40 Minute” value (1 mg/kg oral) was 171 ± 11.1 mg/dL and the “Glucose, 60 Minute” value (1 mg/kg oral) was 162 ± 5.8 mg/dL. The “Glucose, 120 Minute” value (1 mg/kg oral) was 109 ± 7.3 mg/dL, the “Baseline Adjusted AUC (glucose)” value (1 mg/kg oral, in mg·min/dL) was 4158 ± 374^ and the “Glucose, 0 Minute” value (1 mg/kg oral) was 76 ± 3.3 mg/dL. The “Glucose, 20 Minute” value (3 mg/kg oral) was 133 ± 7.1 mg/dL, the “Glucose, 40 Minute” value (3 mg/kg oral) was 150 ± 7.5 mg/dL and the “Glucose, 60 Minute” value (3 mg/kg oral) was 155 ± 7.2 mg/dL. The “Glucose, 120 Minute” value (3 mg/kg oral) was 115 ± 10 mg/dL, the “Baseline Adjusted AUC (glucose)” value (3 mg/kg oral) was 3606 ± 421 and the “Glucose, 0 Minute” value (3 mg/kg oral) was 72 ± 2.6 mg/dL. For the same molecule, the “Glucose, 20 Minute” value (10 mg/kg oral) was 124 ± 1.2 mg/dL, the “Glucose, 40 Minute” value (10 mg/kg oral) was 137 ± 5.4 mg/dL and the “Glucose, 60 Minute” value (10 mg/kg oral) was 138 ± 6.1 mg/dL. For the same molecule, the “Glucose, 120 Minute” value (10 mg/kg oral) was 114 ± 4.3 mg/dL, the “Baseline Adjusted AUC (glucose)” value (10 mg/kg oral) was 2693 ± 309 and the “Glucose, 0 Minute” value (10 mg/kg oral) was 78 ± 5.4 mg/dL. The “Baseline adjusted glucose AUC during an OGTT” value (0.3-10 mg/kg oral, in words) was “dose dependent decrease in baseline adjusted glucose area under the curve (AUC)” and the “Glucose excursion following an oral bolus of 50% dextrose” value (0.3-10 mg/kg oral, in words) was “dose dependent decrease in the glucose excursion”.
